These results are taken from ChEMBL document CHEMBL3046792, “Biologically active secondary metabolites of endophytic Pezicula species” (1995).

Assay type in all cases: functional
For test [1], the system named is Priestia megaterium. The test can be described thus: Antimicrobial activity against Bacillus megaterium at 0.9 mg by agar diffusion test. Conditions: read-out: IZ.
Test [2] relates to Escherichia coli. Put plainly: Antimicrobial activity against Escherichia coli at 0.9 mg by agar diffusion test. The following applies: read-out: IZ.
The test system of another test is Lepidium sativum. The test can be described thus: Herbicidal activity against Lepidium sativum assessed as inhibition of seedlings growth after 2 days.
The subject of test [3] is [Chlorella] fusca. The test can be described thus: Antimicrobial activity against 'Chlorella' fusca at 0.9 mg by agar diffusion test. Conditions: Scenedesmus fuscus; read-out: IZ.
A further test deals with Medicago sativa. The test can be described thus: Herbicidal activity against Medicago sativa (alfalfa) assessed as inhibition of seedlings growth after 5 days.
Test [4] relates to Microbotryum violaceum. Put plainly: Antimicrobial activity against Microbotryum violaceum at 0.9 mg by agar diffusion test. The following applies: read-out: IZ.
The subject of test [5] is Aspergillus pseudoglaucus. The test can be described thus: Antimicrobial activity against Eurotium repens at 0.9 mg by agar diffusion test. The following applies: read-out: IZ.
Test [6] deals with Mycotypha microspora. Put plainly: Antimicrobial activity against Mycotypha microspora at 0.9 mg by agar diffusion test. The following applies: read-out: IZ.
Test [7] relates to Escherichia coli. The test can be described thus: Antimicrobial activity against Escherichia coli at 1 mg by agar diffusion test. Conditions: read-out: IZ.
Test [8] concerns [Chlorella] fusca. The test can be described thus: Antimicrobial activity against 'Chlorella' fusca at 1 mg by agar diffusion test. Conditions: Scenedesmus fuscus; read-out: IZ.
For test [9], the system named is Mycotypha microspora. The test can be described thus: Antimicrobial activity against Mycotypha microspora at 1 mg by agar diffusion test. The following applies: read-out: IZ.
Test [10] deals with Priestia megaterium. Put plainly: Antimicrobial activity against Bacillus megaterium at 1 mg by agar diffusion test. Conditions: read-out: IZ.
Test [11] relates to Microbotryum violaceum. Put plainly: Antimicrobial activity against Microbotryum violaceum at 1 mg by agar diffusion test. Conditions: read-out: IZ.
Test [12] has as its system Aspergillus pseudoglaucus. Put plainly: Antimicrobial activity against Eurotium repens at 1 mg by agar diffusion test. Conditions: read-out: IZ.
Test [13] relates to Mycotypha microspora. Put plainly: Antimicrobial activity against Mycotypha microspora at 1.2 mg by agar diffusion test. Conditions: read-out: IZ.
The subject of test [14] is [Chlorella] fusca. Put plainly: Antimicrobial activity against 'Chlorella' fusca at 1.2 mg by agar diffusion test. Conditions: Scenedesmus fuscus; read-out: IZ.
Test [15] deals with Priestia megaterium. Put plainly: Antimicrobial activity against Bacillus megaterium at 1.2 mg by agar diffusion test. The following applies: read-out: IZ.
Test [16] has as its system Escherichia coli. Put plainly: Antimicrobial activity against Escherichia coli at 1.2 mg by agar diffusion test. The following applies: read-out: IZ.
Test [17] concerns Microbotryum violaceum. Put plainly: Antimicrobial activity against Microbotryum violaceum at 1.2 mg by agar diffusion test. Conditions: read-out: IZ.
The test system of test [18] is Aspergillus pseudoglaucus. Put plainly: Antimicrobial activity against Eurotium repens at 1.2 mg by agar diffusion test. Conditions: read-out: IZ.

Turning to `C[C@@H]1Cc2cccc(O)c2C(=O)O1` [(-)-(R)-MELLEIN], the zone of inhibition at 900 µg/disc in the test with Priestia megaterium [1] came to 2 mm; in the test with Escherichia coli [2] it was 2 mm; in test [Chlorella] fusca [3], 14 mm; in the test with Microbotryum violaceum [4], 8 mm; in test [5], 6 mm; with Mycotypha microspora [6], 0 mm. For the same compound, the “growth inhibition (GI)” value in the test on Lepidium sativum and in the test on Medicago sativa was 100% in each case.

As for `C/C=C/C1=C(Cl)C(=O)[C@@H](Cl)[C@@]1(O)C(=O)OC` [(+)-CRYPTOSPORIPSIN], the zone of inhibition at 1000 µg/disc in the test with Escherichia coli [7] worked out at 3 mm; in [Chlorella] fusca [8], 0 mm; in the test with Mycotypha microspora [9], 17 mm; with Priestia megaterium [10], 5 mm; in the test on Microbotryum violaceum [11], 15 mm; in test [12] it was 16 mm. Besides, the “growth inhibition (GI)” value in the test on Lepidium sativum and in the test with Medicago sativa was 100% each time.

For the compound `C/C=C(\Cl)C1=CC(=O)[C@@]23C[C@@H]2C(C)(C)O[C@@]3(O)C1=O` [(-)-MYCORRHIZIN A], the zone of inhibition at 1200 µg/disc in the test with Mycotypha microspora [13] was 10 mm; in test [Chlorella] fusca [14], 3 mm; with Priestia megaterium [15] it was 8 mm; with Escherichia coli [16] it was 3 mm; with Microbotryum violaceum [17] it was 14 mm; in test [18], 14 mm. Further, the “growth inhibition (GI)” value with Lepidium sativum and in the test with Medicago sativa was 100% each time.

On to `C=C1C(=O)O[C@H]2C(=O)O[C@H](CC)[C@@H]12` [4-EPI-ETHIOSOLIDE], for which the zone of inhibition at 1000 µg/disc in the test on Escherichia coli [7] worked out at 5 mm; in test [Chlorella] fusca [8], 3 mm; in the test with Mycotypha microspora [9], 6 mm; in the test with Priestia megaterium [10], 5 mm; in the test with Microbotryum violaceum [11] it was 10 mm. For the same compound, the “growth inhibition (GI)” value in the test with Lepidium sativum and in the test on Medicago sativa was 100% in each case.
